Like-named read-outs stand apart in the source and are kept apart here.
Assays:
[1] = Study .4: 4-week treatment of diabetic patients, once daily, pharmacokinetic parameters; assay type: in vivo, human; settings: human, plasma, oral, 25 mg, Study .4, fasted
Experimental: (§1) 5. Pharmacokinetic Parameters
(§2) The pharmacokinetic parameters of pharmaceutical compositions and pharmaceutical dosage forms are assessed in healthy volunteer and patient populations. In the studies shown below, the participants fasted on the day of sampling, unless as otherwise stated (see for example study .3). The active substance in the studies below is the compound (I.9), preferably in the crystalline form (I.9X), and the dose of active ingredient is indicated in mg.
(§3) For the quantification of plasma concentrations of the active ingredient, 2.7 mL of blood was collected and transferred into an EDTA (ethylendiaminetetraacetic acid)-anticoagulant blood drawing tube. The EDTA-anticoagulated blood samples were centrifuged immediately after collection. Centrifugation lasted for about 10 minutes (at about 2,000×gf to 4,000×gf) at 4-8° C. or within 30 minutes while stored on ice. Concentrations of active substance in EDTA human plasma samples were quantitated using a HPLC/MS/MS method. The assay method comprised a solid phase supported liquid-liquid extraction of human plasma coupled with HPLC/MS/MS determination of the extracted samples. The HPLC/MS/MS assay was validated for the range of 1.11 to 1110 nM in human plasma.
(§4) Study .4: 4-week treatment of a diabetic patient population of N=78, once daily administration for 4 weeks. Patients were administered tablets as described in Example 10 (section Examples of formulations).
(§5) AUC0-inf:area under the concentration-time curve of the analyte in plasma over the time interval from 0 extrapolated to infinity.
(§6) Cmax: maximum concentration of the analyte in plasma.
(§7) Tmax: time from dosing to maximum concentration.
(§8) AUCT,SS:area under the concentration-time curve of the analyte in plasma over the time interval from 0 to 24 h at steady-state.
(§9) Cmax,ss:maximum concentration of the analyte in plasma at steady state over a uniform dosing interval.
(§10) tmax,ss:time from dosing to maximum concentration at steady state.

[2] = Pharmacokinetic profile in fasting humans, ranges over Studies .1 to .5; assay type: in vivo; settings: human, plasma, oral
Experimental: as §1, §2, §3
Study .1: Single dose study in a healthy volunteer population of N=72. Healthy volunteers were administered tablets as described in Example 10 (section Examples of formulations).
Study .2: Multiple rising dose trial in a diabetic patient population of N=48, once daily administration for 8 days. Patients were administered tablets as described in Example 10 (section Examples of formulations).
Study .3: Single dose, cross-over, food effect study in a healthy volunteer population of N=14. Healthy volunteers were administered tablets as described in Example 10 (section Examples of formulations).
as §4
Study .5: Single dose study in a healthy volunteer population of N=48 (Japanese volunteers). Healthy volunteers were administered tablets as described in Example 11 (section Examples of formulations).
as §5, §6, §7, §8, §9, §10

- Cmax ([1]; 25 mg once daily, steady state, read-out: Cmax,ss gMean): 676 nM
- Tmax ([1]; 25 mg once daily, steady state, read-out: tmax,ss Mean): 1.55 h
- Tmax ([1]; 25 mg once daily, steady state, read-out: tmax,ss Median): 1.5 h
- Tmax ([1]; 25 mg once daily, steady state, read-out: tmax,ss g Mean): 1.4 h
- AUC(0-inf) ([1]; 25 mg single dose, read-out: AUC0-inf Mean): 4.34 µM·h
- AUC(0-inf) ([1]; 25 mg single dose, read-out: AUC0-inf Median): 4.27 µM·h
- AUC(0-inf) ([1]; 25 mg single dose, read-out: AUC0-inf gMean): 4.24 µM·h
- Cmax ([1]; 25 mg single dose, read-out: Cmax Mean): 722 nM
- Cmax ([1]; 25 mg single dose, read-out: Cmax Median): 697 nM
- Cmax ([1]; 25 mg single dose, read-out: Cmax gMean): 709 nM
- Tmax ([1]; 25 mg single dose, read-out: tmax Mean): 1.39 h
- Tmax ([1]; 25 mg single dose, read-out: tmax Median): 1.5 h
- Tmax ([1]; 25 mg single dose, read-out: tmax gMean): 1.33 h
- AUC ([2]; 2.5 mg, dose of 2.5 mg, read-out: AUC): 0.283 to 0.677 µM·h
- Cmax ([2]; 2.5 mg, dose of 2.5 mg, read-out: Cmax): 40.3 to 96.3 nM
- AUC ([2]; 2.5 mg, dose of 2.5 mg, read-out: geometric mean AUC): 0.394 to 0.468 µM·h
- Cmax ([2]; 2.5 mg, dose of 2.5 mg, read-out: geometric mean Cmax): 52.9 to 66.6 nM
- AUC ([2]; 2.5 mg, multiple doses of 2.5 mg, read-out: AUCτ,ss): 0.283 to 0.677 µM·h
- Cmax ([2]; 2.5 mg, multiple doses of 2.5 mg, read-out: Cmax,ss): 40.3 to 96.3 nM
- AUC(0-inf) ([2]; 2.5 mg, single dose of 2.5 mg, read-out: AUC0-inf): 0.326 to 0.631 µM·h
- Cmax ([2]; 2.5 mg, single dose of 2.5 mg, read-out: Cmax): 42.8 to 81.2 nM
- AUC(0-inf) ([2]; 2.5 mg, single dose of 2.5 mg, read-out: geometric mean AUC0-inf): 0.394 to 0.468 µM·h
- Cmax ([2]; 2.5 mg, single dose of 2.5 mg, read-out: geometric mean Cmax): 52.9 to 61.3 nM
- AUC ([2]; 5 mg, dose of 5.0 mg, read-out: AUC): 1 to 1.31 µM·h
- Cmax ([2]; 5 mg, dose of 5.0 mg, read-out: Cmax): 123 to 230 nM
- AUC(0-inf) ([2]; 5 mg, single dose of 5.0 mg, read-out: AUC0-inf): 1 to 1.31 µM·h
- Cmax ([2]; 5 mg, single dose of 5.0 mg, read-out: Cmax): 123 to 230 nM
- AUC ([2]; 10 mg, dose of 10.0 mg, read-out: AUC): 1.17 to 3.19 µM·h
- Cmax ([2]; 10 mg, dose of 10.0 mg, read-out: Cmax): 143 to 796 nM
- AUC ([2]; 10 mg, dose of 10.0 mg, read-out: geometric mean AUC): 1.69 to 2.66 µM·h
- Cmax ([2]; 10 mg, dose of 10.0 mg, read-out: geometric mean Cmax): 221 to 372 nM
- AUC ([2]; 10 mg, multiple doses of 10.0 mg, read-out: AUCτ,ss): 1.35 to 2.6 µM·h
- Cmax ([2]; 10 mg, multiple doses of 10.0 mg, read-out: Cmax,ss): 166 to 479 nM
- AUC ([2]; 10 mg, multiple doses of 10.0 mg, read-out: geometric mean AUCτ,ss): 1.85 to 2 µM·h
- Cmax ([2]; 10 mg, multiple doses of 10.0 mg, read-out: geometric mean Cmax,ss): 252 to 272 nM
- AUC(0-inf) ([2]; 10 mg, single dose of 10.0 mg, read-out: AUC0-inf): 1.17 to 3.19 µM·h
- Cmax ([2]; 10 mg, single dose of 10.0 mg, read-out: Cmax): 143 to 796 nM
- AUC(0-inf) ([2]; 10 mg, single dose of 10.0 mg, read-out: geometric mean AUC0-inf): 1.69 to 2.66 µM·h
- Cmax ([2]; 10 mg, single dose of 10.0 mg, read-out: geometric mean Cmax): 221 to 372 nM
- AUC ([2]; 25 mg, dose of 25.0 mg, read-out: AUC): 2.66 to 7.64 µM·h
- Cmax ([2]; 25 mg, dose of 25.0 mg, read-out: Cmax): 334 to 1030 nM
- AUC ([2]; 25 mg, dose of 25.0 mg, read-out: geometric mean AUC): 3.75 to 6.13 µM·h
- Cmax ([2]; 25 mg, dose of 25.0 mg, read-out: geometric mean Cmax): 490 to 709 nM
- AUC ([2]; 25 mg, multiple doses of 25.0 mg, read-out: AUCτ,ss): 2.79 to 7.64 µM·h
- Cmax ([2]; 25 mg, multiple doses of 25.0 mg, read-out: Cmax,ss): 443 to 907 nM
- AUC ([2]; 25 mg, multiple doses of 25.0 mg, read-out: geometric mean AUCτ,ss): 4.64 to 4.89 µM·h
- Cmax ([2]; 25 mg, multiple doses of 25.0 mg, read-out: geometric mean Cmax,ss): 622 to 676 nM
- AUC(0-inf) ([2]; 25 mg, single dose of 25.0 mg, read-out: AUC0-inf): 2.66 to 7.17 µM·h
- Cmax ([2]; 25 mg, single dose of 25.0 mg, read-out: Cmax): 334 to 1030 nM
- AUC(0-inf) ([2]; 25 mg, single dose of 25.0 mg, read-out: geometric mean AUC0-inf): 3.75 to 6.13 µM·h
- Cmax ([2]; 25 mg, single dose of 25.0 mg, read-out: geometric mean Cmax): 490 to 709 nM
- AUC ([2]; 50 mg, dose of 50.0 mg, read-out: AUC): 6.45 to 14.1 µM·h
- Cmax ([2]; 50 mg, dose of 50.0 mg, read-out: Cmax): 722 to 2020 nM
- AUC ([2]; 50 mg, dose of 50.0 mg, read-out: geometric mean AUC): 8.31 to 8.46 µM·h
- Cmax ([2]; 50 mg, dose of 50.0 mg, read-out: geometric mean Cmax): 1080 to 1140 nM
- AUC(0-inf) ([2]; 50 mg, single dose of 50.0 mg, read-out: AUC0-inf): 6.45 to 14.1 µM·h
- Cmax ([2]; 50 mg, single dose of 50.0 mg, read-out: Cmax): 722 to 2020 nM
- AUC(0-inf) ([2]; 50 mg, single dose of 50.0 mg, read-out: geometric mean AUC0-inf): 8.31 to 8.46 µM·h
- Cmax ([2]; 50 mg, single dose of 50.0 mg, read-out: geometric mean Cmax): 1080 to 1140 nM
Structure (SMILES): OC[C@H]1O[C@@H](c2ccc(Cl)c(Cc3ccc(O[C@H]4CCOC4)cc3)c2)[C@H](O)[C@@H](O)[C@@H]1O [Compound (I.9), 1-chloro-4-(β-D-glucopyranos-1-yl)-2-[4-((S)-tetrahydrofuran-3-yloxy)-benzyl]-benzene]
